Test system: healthy volunteers
Experiment: Testing in healthy volunteers: warming sensation, cooling sensation, skin irritation on forearm
Format: in vivo, human
Details: at 11 wt % based on the total weight of the hydrogel composition
Protocol: In a pilot study to evaluate the hydrogel composition formulations, the different hydrogel prototypes (with a gauze on which the respective hydrogel composition was disposed) of Examples 2 (called gel B in Table 3) and 6 (called gel C in Table 3) and Comparative Example 1 (called gel A in Table 3) were tested on 8 healthy volunteers (M:F=5:3, ages 27-64), respectively. […] Three clinical parameters were considered including the cooling sensation, the warming sensation and irritation/erythema on the applied skin area. In this pilot study, each participant has applied the topical hydrogels (120 mm×100 mm×5 mm; 70 g) on to their forearm (one gel per forearm at a time) and scored their subjective warming and cooling sensations at 5, 10, 20, and 30 min after hydrogel application according to Table 2. The skin irritation reaction was also examined and scored by a researcher according to Table 2.

## COC(=O)c1ccccc1O [Methyl salicylate, methyl salicylate]
  irritation by methyl salicylate in hydrogel: showed irritation
